US20150173370A1, “S[…] CONTROL FROM COMBINATIONS OF 2,4-D-CHOLINE, GLYPHOSATE, AND GLUFOSINATE” (Dow AgroSciences LLC, priority 2013, published 2015)
“And” between values parts separate entries of the source, which are not always exact repeats. Identical values can stand only once.

Legend:
[1] = tested on: AAD12 Soybean (GLXMA); experiment: Field trials, crop tolerance (% visual chlorosis); assay type: in vivo, Glycine max L. (soybean)
Experimental: Field trials were conducted under agricultural field conditions in multiple states in the United States, including but not limited to Arkansas, Iowa, Illinois, Indiana, Kansas, Minnesota, Mississippi, Missouri, New York, Tennessee and Wisconsin. Trials were established as RCB (randomized complete block) design, with 3-4 replicates per treatment, and plot sizes varying from 5-10 feet (ft) wide by 12-30 ft long. Treatments were applied with small plot backpack sprayers, using pressurized carbon dioxide (CO2) as propellant. Pressure varied from 17-52 pounds per square inch (psi), with spray tips typically of a Flat Fan type applying water diluent at 15 gallons per acre (GPA). Boom sizes varied from 5-11 ft in width. Treatments were applied to soybean, cotton, corn or fallow crop land. Weed sizes varied, but all treatments were applied as post-emergence treatments to weeds from 2 leaf to 2 tiller growth stages varying from 3 to 17 inches in height. The weed spectrum included, but was not limited to, Amaranthus palmeri S. Wats. (Palmer amaranth, AMAPA), Ambrosia trifida L. (giant ragweed, AMBTR), Conyza canadensis (L.) Cronq. (horseweed, ERICA) and Salsola tragus L. (Russian thistle, SASKR). […]
However, the experiments described herein were performed such that active ingredients A and B were combined and only the efficacy of the combination was determined. […]

[2] = tested on: AAD12 Soybean (GLXMA); experiment: Field trials, crop tolerance (% visual necrosis); assay type: in vivo, Glycine max L. (soybean)
Experimental: Field trials were conducted under agricultural field conditions in multiple states in the United States, including but not limited to Arkansas, Iowa, Illinois, Indiana, Kansas, Minnesota, Mississippi, Missouri, New York, Tennessee and Wisconsin. Trials were established as RCB (randomized complete block) design, with 3-4 replicates per treatment, and plot sizes varying from 5-10 feet (ft) wide by 12-30 ft long. Treatments were applied with small plot backpack sprayers, using pressurized carbon dioxide (CO2) as propellant. Pressure varied from 17-52 pounds per square inch (psi), with spray tips typically of a Flat Fan type applying water diluent at 15 gallons per acre (GPA). Boom sizes varied from 5-11 ft in width. Treatments were applied to soybean, cotton, corn or fallow crop land. Weed sizes varied, but all treatments were applied as post-emergence treatments to weeds from 2 leaf to 2 tiller growth stages varying from 3 to 17 inches in height. The weed spectrum included, but was not limited to, Amaranthus palmeri S. Wats. (Palmer amaranth, AMAPA), Ambrosia trifida L. (giant ragweed, AMBTR), Conyza canadensis (L.) Cronq. (horseweed, ERICA) and Salsola tragus L. (Russian thistle, SASKR).
Glyphosate-, 2,4-D- and glufosinate-tolerant soybeans, corn or cotton comprising genes for tolerance for each herbicide as described above were used in all trials either as a breeding stack of one to three herbicide-tolerant events or as a molecular stack where all three herbicide tolerance traits were transformed into a single event.
The 2,4-D-choline salt plus glyphosate premix formulation was a 400 g ae/L SL containing 195 g ae/L 2,4-D-choline salt and 205 g ae/L glyphosate-dimethylammonium (DMA) salt. […] All treatments were mixed in water at appropriate formulated product rates to achieve the desired rates as shown based on a unit area of application (hectare). Treatments were rated at 1 to 28 days after application (DAA) as compared to the untreated control plants. The trial sites had naturally occurring populations of weeds. The treated plots and control plots were rated blind at various intervals after application.
Colby's equation was used to determine the herbicidal effects expected from the mixtures (Colby, S. R. Calculation of the synergistic and antagonistic response of herbicide combinations. Weeds 1967, 15, 20-22). A t-test (alpha=0.05) between Colby predictions and observed combinations was used to test for significant differences indicating synergy or antagonism using replicate data.
However, the experiments described herein were performed such that active ingredients A and B were combined and only the efficacy of the combination was determined. As such, Colby's equation simplifies to
Z=observed efficacy of a combination of active ingredient A (2,4-D-choline) and active ingredient B (glyphosate-DMA) at the same concentration as used in the mixture;

SMILES: CP(=O)(O)CCC(N)C(=O)O (stereo not shown) [Glufosinate-Ammonium, ammonium (3-amino-3-carboxypropyl)(methyl)phosphinate]
- Mean % Visual Chlorosis ([1]; 10 DAA, 1084 g ae/ha alone): 8.5% and 10.0%
- Mean % Visual Chlorosis ([1]; 14 DAA, 542 g ae/ha alone): 5.8%
- Mean % Visual Necrosis ([2]; 2 DAA, 1084 g ae/ha alone): 25.0%
- Mean % Visual Necrosis ([2]; 3 DAA, 542 g ae/ha alone): 0.0%
- Mean % Visual Necrosis ([2]; 3 DAA, 822 g ae/ha alone): 0.8%
- Mean % Visual Necrosis ([2]; 3 DAA, 1084 g ae/ha alone): 3.0% and 8.5% and 1.5% and 1.3%
- Mean % Visual Necrosis ([2]; 5 DAA, 542 g ae/ha alone): 2.8%
- Mean % Visual Necrosis ([2]; 7 DAA, 542 g ae/ha alone): 0.5% and 0.3%
- Mean % Visual Necrosis ([2]; 7 DAA, 822 g ae/ha alone): 0.8% and 0.0% and 10.0% and 1.0% and 1.3%
- Mean % Visual Necrosis ([2]; 7 DAA, 1084 g ae/ha alone): 3.3% and 1.3% and 10.0% and 2.0% and 2.3%
- Mean % Visual Necrosis ([2]; 8 DAA, 822 g ae/ha alone): 7.5%
- Mean % Visual Necrosis ([2]; 8 DAA, 1084 g ae/ha alone): 10.0% and 12.5% and 6.5%
- Mean % Visual Necrosis ([2]; 9 DAA, 822 g ae/ha alone): 6.0%
- Mean % Visual Necrosis ([2]; 10 DAA, 1084 g ae/ha alone): 2.3%
- Mean % Visual Necrosis ([2]; 14 DAA, 822 g ae/ha alone): 0.0% and 1.0%
- Mean % Visual Necrosis ([2]; 14 DAA, 1084 g ae/ha alone): 5.0% and 2.0%
- Mean % Visual Necrosis ([2]; 16 DAA, 542 g ae/ha alone): 3.0%
- Mean % Visual Necrosis ([2]; 16 DAA, 822 g ae/ha alone): 5.0%
- Mean % Visual Necrosis ([2]; 16 DAA, 1084 g ae/ha alone): 1.8%
